How the values were obtained:
[1] = tested on: HIV with mutations in the reverse transcriptase gene sequence; experiment: Phenotypic fold resistance to reverse transcriptase inhibitors, RT mutations at positions 101, 103, 181, 190 (Examples 4-7); type: cell-based, HIV-1
Description: As is the case with the genotyping assays, the recombinant virus assay starts with the amplification of viral target sequences by means of PCR. The amplicons are incorporated into a proviral laboratory clone with sequences homologous to those present in the amplicon deleted. This generates a stock of chimeric viruses. The viruses are tested for their ability to grow in the presence of different concentrations of drugs. Results are obtained by calculating IC50 values for each inhibitor and by reporting the results as IC50 values, expressed in μM concentrations, or by computing the ratio of the IC50 values found for the chimeric virus to the IC50 values found for a wild type susceptible laboratory virus tested in parallel. In the latter case, resistance is expressed as “fold-resistance” compared to a wild-type susceptible HIV-1 strain. In order to meet the need for high-volume testing and a short turn-around time for an individual test, the latest generation of phenotyping assays has undergone further modifications. The use of reporter gene systems for susceptibility testing allows the implementation of laboratory automation and standardization. See Pauwels, et al., J. Virol. Methods 20, 309-321 (1998); Paulous, S., et al., International Workshop on HIV Drug Resistance, Treatment Strategies and Eradication, St. Petersburg, Fla., USA. Abstr. 46 (1997); and Deeks, S. G., et al., 2nd International Workshop on HIV Drug Resistance and Treatment Strategies, Lake Maggiore, Italy. Abstr. 53 (1998).
The methods of monitoring HIV-1 drug resistance, may also be used in combination with phenotypic drug resistance testing of viral isolates. For example, in one embodiment, a phenotypic test is utilized that is based upon the construction of chimeric HIV-1 strains composed of the protease (PR) and reverse transcriptase (RT) gene sequences which are isolated and amplified from the patient viral RNA. These strains may subsequently be recombined inside CD4+ T cells with a standard laboratory isogenic (HXB2) HIV-1 DNA construct from which the PR/RT gene sequences were deleted. The recombinant strains may then be grown in the presence of the above-mentioned antiviral drugs and the susceptibility of the viral isolates may be expressed as fold-change value of the IC50 of the drug on the patient isolates over the IC50 of the drug on a wild-type laboratory reference strain.
Overview of the mean fold increase in resistance and the effect of the 101 mutations in the HIV reverse transcriptase gene sequence. The fold increase in resistance is calculated from the increase in the mean IC50 of the drug relative to the mean IC50 of the same drug for a wild-type reference laboratory HIV-1 strain. The effect of the mutations was investigated on Nevirapine, Delavirdine and Efavirenz.
Overview of the mean fold increase in resistance and the effect of the 103 mutations in the HIV reverse transcriptase gene sequence. The fold increase in resistance is calculated from the increase in the mean IC50 of the drug relative to the mean IC50 of the same drug for a wild-type reference laboratory HIV-1 strain.
Overview of the mean fold increase in resistance and the effect of the 181 mutations in the HIV reverse transcriptase gene sequence. The fold increase in resistance is calculated from the increase in the mean IC50 of the drug relative to the mean IC50 of the same drug for a wild-type reference laboratory HIV-1 strain.
Overview of the mean fold increase in resistance and the effect of the 190 mutations in the HIV reverse transcriptase gene sequence. The fold increase in resistance is calculated from the increase in the mean IC50 of the drug relative to the mean IC50 of the same drug for a wild-type reference laboratory HIV-1 strain.

[2] = tested on: HIV-1 HXB2-D variants with site-directed RT mutations; experiment: MT-4 cell CPE protection assay, HIV-1 variants constructed by site-directed mutagenesis (Example 2); type: cell-based
Description: Mutations in the RT coding region were created by site-directed mutagenesis of a wild-type HXB2-D EcoRl-Pstl restriction enzyme fragment, encompassing the HIV-1 pol gene and cloned into pGEM3 (Promega). Single and multiple nucleotide changes were introduced into RT using the EXSITE™ mutagenesis kit (Strategene). All mutant clones were verified by DNA sequence analysis of the entire RT. PCR fragments were prepared from the mutated clones and the altered RT coding regions were transferred into the HIV-1 HXB2-D genetic background by homologous recombination as described above. The susceptibility of these recombinant viruses to nucleoside analogues was subsequently determined by the MT-4 cell CPE protection assay. Id.

| Structure (SMILES) | fold increase in resistance compared to a laboratory reference strain (WT) ([1]; RT genotype 101E) [fold] | fold increase in resistance compared to a laboratory reference strain (WT) ([1]; RT genotype 101H) [fold] | fold increase in resistance compared to a laboratory reference strain (WT) ([1]; RT genotype 101P) [fold] | fold increase in resistance compared to a laboratory reference strain (WT) ([1]; RT genotype 101Q) [fold] | mean fold increase in resistance compared to a laboratory reference strain (WT) ([1]; RT genotype 103H) [fold] | mean fold increase in resistance compared to a laboratory reference strain (WT) ([1]; RT genotype 103N) [fold] | mean fold increase in resistance compared to a laboratory reference strain (WT) ([1]; RT genotype 103R) [fold] | mean fold increase in resistance compared to a laboratory reference strain (WT) ([1]; RT genotype 103S) [fold] | mean fold increase in resistance compared to a laboratory reference strain (WT) ([1]; RT genotype 103T) [fold] | fold increase in resistance compared to a laboratory reference strain (WT) ([1]; RT genotype 181C) [fold] | fold increase in resistance compared to a laboratory reference strain (WT) ([1]; RT genotype 181I) [fold] | fold increase in resistance compared to a laboratory reference strain (WT) ([1]; RT genotype 181S) [fold] | fold increase in resistance compared to a laboratory reference strain (WT) ([1]; RT genotype 190A) [fold] | fold increase in resistance compared to a laboratory reference strain (WT) ([1]; RT genotype 190E) [fold] | fold increase in resistance compared to a laboratory reference strain (WT) ([1]; RT genotype 190Q) [fold] | fold increase in resistance compared to a laboratory reference strain (WT) ([1]; RT genotype 190S) [fold] | fold increase in resistance compared to a laboratory reference strain (WT) ([1]; RT genotype WT (Table 5)) [fold] | mean fold increase in resistance compared to a laboratory reference strain (WT) ([1]; RT genotype WT (Table 6)) [fold] | fold increase in resistance compared to a laboratory reference strain (WT) ([1]; RT genotype WT (Table 7)) [fold] | fold increase in resistance compared to a laboratory reference strain (WT) ([1]; RT genotype WT (Table 8)) [fold] | other results |
| --- | --- | --- | --- | --- | --- | --- | --- | --- | --- | --- | --- | --- | --- | --- | --- | --- | --- | --- | --- | --- | --- |
| CC(C)Nc1cccnc1N1CCN(C(=O)c2cc3cc(NS(C)(=O)=O)ccc3[nH]2)CC1 [Delavirdine, delavirdine] | 7.7 | 45.5 | 162.4 | 1.2 | 191.6 | 176.1 | 1.6 | 18.3 | 84.5 | 82.5 | 81.7 | 147.9 | 2.3 | 131.1 | 34.0 | 1.9 | 1.8 | 1.8 | 1.8 | 1.8 | – |
| O=C1Nc2ccc(Cl)cc2[C@@](C#CC2CC2)(C(F)(F)F)O1 [Efavirenz, efavirenz] | 2.4 | 3.5 | 84.2 | 0.9 | 52.7 | 486.8 | 0.6 | 8.4 | 2.8 | 2.0 | 2.0 | 8.7 | 24.8 | 385.3 | 401.1 | 483.6 | 0.9 | 0.9 | 0.9 | 0.9 | – |
| Cc1ccnc2c1NC(=O)c1cccnc1N2C1CC1 [Nevirapine, nevirapine] | 4.9 | 24.0 | 53.4 | 1.9 | 69.4 | 48.1 | 1.1 | 45.4 | 43.7 | 56.0 | 63.8 | 82.8 | 60.7 | 40.0 | 52.7 | 75.9 | 1.3 | 1.3 | 1.3 | 1.3 | – |
| Nc1nc(NC2CC2)c2ncn([C@H]3C=C[C@@H](CO)C3)c2n1 [abacavir, 4-[(2-amino-6-cyclopropyl-amino)-9H-purin-9-yl]-2-cyclopentene-1-methanol] | – | – | – | – | – | – | – | – | – | – | – | – | – | – | – | – | – | – | – | – | susceptibility ([2]; 69S-[S-S] insert plus AZT resistance mutations (210W and 215Y)): decreased susceptibility |
| O=c1[nH]cnc2c1ncn2[C@H]1CC[C@@H](CO)O1 [ddl, didanosine] | – | – | – | – | – | – | – | – | – | – | – | – | – | – | – | – | – | – | – | – | resistance ([2]; T69A or V75M in a background of AZT mutations): little or no resistance |
